The text below walks through data of patent publication US5614408A, “Monoclonal antibodies to potato, tomato, and eggplant glycoalkaloids and assays for the same” (priority 1995, dated 1997).

Common to all, as to assay type: binding, mouse
Assay [1] relates to monoclonal antibody Sol-8. The assay is described as follows: competitive inhibition ELISA (c-ELISA), monoclonal antibody Sol-8. Particulars: Sol-8 (IgG2a); ± one standard deviation. Here is the method:
(§1) Five, 6 month old BALB/c mice were injected with 50 μl of the solanidine-KLH conjugate mixed 1:1 with Ribi adjuvant (Ribi Immunochem Research Inc., Hamilton, Mont.). The mice received half the dose intraperitoneally and half intramuscularly every other week for a total of three injections. One month later, and 4 days prior to fusion, a selected mouse was given an intraperitoneal injection of 50 μl of solanidine-KLHconjugate in sterile saline. The spleen was removed and the splenocytes fused with SP2/O myeloma cells as described by Stanker et al. (1986, J. Immunol., 136:4174-4180), the contents of which are incorporated by reference herein. The fused cells were plated over 30 96-well microculture plates previously coated with mouse peritoneal exudate cells (macrophage) and grown under conditions described by Elissalde et al. (1993, J. Agric. Food Chem., 41:2167-2171), the contents of which are also incorporated by reference herein.
(§2) db-ELISA. A modification of a direct-binding ELISA described by Stanker et al. (1993, J. Agric. Food Chem., 41:1332-1336), the contents of which are incorporated by reference herein, was used to screen the culture fluids from the growing hybridomas for antibodies to solanidine. Microtiter plates (Nunc Maxisorb, Roskilde, Denmark; or Costar high binding plates, Costar Corp., Wilmington, Mass.) were coated with SOL-BSA by addition of 100 μl/well of a 1 μg/ml solution of SOL-BSA in distilled water. The SOL-BSA was incubated in uncovered plates at 37° C. for 18 hr to evaporate the liquid and allow the SOL-BSA to coat the bottom of the microtiter wells. The "coated" plates were then stored in sealed plastic bags at 4° C. and used within 2 weeks. Nonreacted sites on the plates were blocked by adding 400 μl of a 3% solution of nonfat dry milk (NFDM) in assay buffer (0.1M Tris, 0.15M NaCl, 10 mg/ml nonfat dry milk, 0.001% Tween 20, 0.02% sodium azide) and incubating the plates at room temperature for 1 hr. The blocking solution was then discarded and 100 μl of the hybridoma supernatant(s) or anti-solanidine Mab (from ascites fluid) was added, and the plates incubated for 1 hr at 37° C. After incubation, the plates were washed with a solution of 0.05% TWEEN-20 in water, and peroxidase conjugated goat anti-mouse antiserum (Sigma Inc., St. Louis, Mo.), diluted 1:500 in assay buffer, was then added to each well. Following a second 1 hr incubation at 37° C., the plates were washed as described above. Finally, the substrate, 2,2'-azino-bis(ethylbenzthiazole-6-sulfonic acid) (ABTS), was added. Absorbance was measured at 405 nm and the resulting data analyzed by computer using an Excel (Microsoft, Redmond, Wash.) spreadsheet program.
(§3) c-ELISA. The competitive inhibition ELISA for solanidine and other glycoalkaloids was carried out as previously described for other compounds by Stanker et al. (1993, ibid). Briefly, to each well of an antigen (glycoalkaloid or aglycone) coated, non-fat-milk-blocked, microtiter plate prepared as described in the db-ELISA was added 100 μl of assay buffer. Competitors (free solanidine and other glycoalkaloids and aglycones, and four structurally related steroids cholesterol, digitonin, βsitosterol, and stigmasterol, shown in Table 1) dissolved in 100 μl of assay buffer were added to the microassay plate and serially diluted (a 2-fold series). Next, 100 μl of assay buffer containing a predetermined amount of anti-solanidine monoclonal antibody prepared above was added to each well. The amount of anti-alkaloid antibody added was the concentration (dilution from tissue culture supernatant) resulting in approximately 50% of maximum binding or signal in a direct-binding ELISA where no competitor was present. The plates were sealed with plastic wrap, incubated for 1 hr at 37° C., and then processed as described in the db-ELISA to detect bound antibody. […]

For assay [2], the system named is monoclonal antibody Sol-55. The assay is described as follows: competitive inhibition ELISA (c-ELISA), monoclonal antibody Sol-55. Particulars: Sol-55 (IgG2a); ± one standard deviation. Here is the method: as §1, §2, §3
For orientation: In an ELISA, binding on a coated surface is turned into a signal by an enzyme label.

Assay [3] has as its system monoclonal antibody Sol-106. The assay is described as follows: competitive inhibition ELISA (c-ELISA), monoclonal antibody Sol-106. Particulars: Sol-106 (IgG2a); ± one standard deviation. The method, then: as §1, §2, §3
For assay [4], the system named is monoclonal antibody Sol-68. Description: competitive inhibition ELISA (c-ELISA), monoclonal antibody Sol-68. Particulars: Sol-68 (IgG1); ± one standard deviation. Here is the method: as §1, §2, §3
Assay [5] deals with monoclonal antibody Sol-67. Description: competitive inhibition ELISA (c-ELISA), monoclonal antibody Sol-67. Particulars: Sol-67 (IgG1); ± one standard deviation. The method, then:
as §1, §2, §3

In assay [6] the test system is monoclonal antibody Sol-71. The assay is described as follows: competitive inhibition ELISA (c-ELISA), monoclonal antibody Sol-71. Particulars: Sol-71 (IgG2a); ± one standard deviation. The method, then: as §1, §2, §3
The test system of assay [7] is monoclonal antibody Sol-54. The assay is described as follows: competitive inhibition ELISA (c-ELISA), monoclonal antibody Sol-54. Particulars: Sol-54 (IgG2a); ± one standard deviation. Here is the method:
as §1, §2, §3

Assay [8] deals with monoclonal antibody Sol-48. The assay is described as follows: competitive inhibition ELISA (c-ELISA), monoclonal antibody Sol-48. Particulars: Sol-48 (IgG2a); ± one standard deviation. Here is the method:
as §1, §2, §3

Assay [9] deals with monoclonal antibody Sol-59. Description: competitive inhibition ELISA (c-ELISA), monoclonal antibody Sol-59. Particulars: Sol-59 (IgG2a); ± one standard deviation. The method, then: as §1, §2, §3
Assay [10] concerns monoclonal antibody Sol-129. Description: competitive inhibition ELISA (c-ELISA), monoclonal antibody Sol-129. Particulars: for IC50: Sol-129 (IgG1), ± one standard deviation; for relative affinity of Sol-129 / binding by Sol-129: in words. The method, then: as §1, §2, §3
For assay [11], the system named is monoclonal antibody Sol-91. The assay is described as follows: competitive inhibition ELISA (c-ELISA), monoclonal antibody Sol-91. Particulars: Sol-91 (IgG2a); ± one standard deviation. Here is the method: as §1, §2, §3

SMILES strings stand for the structures. “Also recorded” adds a separate entry of the source.

For `C[C@H]1CC[C@@H]2[C@@H](C)[C@H]3[C@H](C[C@H]4[C@@H]5CC=C6C[C@@H](O)CC[C@]6(C)[C@H]5CC[C@]34C)N2C1` [solanidine], the IC50 is recorded as 46 ± 6.4 ppb in assay [1]; 60 ± 19 ppb in assay [2]; 14 ppb in assay [3]; 489 ppb in assay [4]; 15.6 ppb in assay [5]; 1020 ppb in assay [6]. The IC50 in assay [7] is 131 ± 53 ppb; in assay [8] it was 18 ± 4.4 ppb; in [9] it was 16 ± 1.7 ppb; in [10], 2.5 ± 0.35 ppb; in assay [11], 36 ± 5.7 ppb. Further, in [10], the “relative affinity of Sol-129” value is on record as “high affinity; also recorded: lowest relative affinity”.

On to `C[C@@H]1CC[C@@]2(NC1)O[C@H]1C[C@H]3[C@@H]4CC=C5C[C@@H](O)CC[C@]5(C)[C@H]4CC[C@]3(C)[C@H]1[C@@H]2C` [solasodine], for which the “binding by Sol-129” value in assay [10] is on record as “binds”.

As for `C[C@@H]1CC[C@@]2(NC1)O[C@H]1C[C@H]3[C@@H]4CC=C5C[C@@H](O[C@@H]6O[C@H](CO)[C@H](O)[C@H](O[C@@H]7O[C@H](CO)[C@@H](O)[C@H](O)[C@H]7O)[C@H]6O[C@@H]6O[C@@H](C)[C@H](O)[C@@H](O)[C@H]6O)CC[C@]5(C)[C@H]4CC[C@]3(C)[C@H]1[C@@H]2C` [solasonine], the IC50 entry in assay [1], in assay [2], in assay [3], in assay [4], in [5] and in [6] was “nc (no competition at 10,000 ppb)” throughout. The IC50 entry is recorded as “nc (no competition at 10,000 ppb)” in assay [7]; “nc (no competition at 10,000 ppb)” in assay [8]; “nc (no competition at 10,000 ppb)” in assay [9]; 36 ± 3.2 ppb in assay [10]; “nc (no competition at 10,000 ppb)” in assay [11]. Moreover, the “binding by Sol-129” value in assay [10] is “Sol-129 was the only antibody capable of binding”. For the same compound, in assay [10], the “relative affinity of Sol-129” value is “high affinity”.

On to `C[C@H]1CC[C@]2(NC1)O[C@H]1C[C@H]3[C@@H]4CC[C@H]5C[C@@H](O)CC[C@]5(C)[C@H]4CC[C@]3(C)[C@H]1[C@@H]2C` [tomatidine], for which the IC50 entry in assay [1], in assay [2], in assay [3], in assay [4], in assay [5] and in assay [6] was “nc (no competition at 10,000 ppb)” in each case. The IC50 entry was “nc (no competition at 10,000 ppb)” in [7]; “nc (no competition at 10,000 ppb)” in [8]; “nc (no competition at 10,000 ppb)” in [9]; 10.4 ± 2.0 ppb in assay [10]; “nc (no competition at 10,000 ppb)” in assay [11]. Moreover, in assay [10], the “binding by Sol-129” value is reported as “specifically bound; also recorded: Sol-129 was the only antibody capable of binding”.

As to `C[C@H]1CC[C@@H]2[C@@H](C)[C@H]3[C@H](C[C@H]4[C@@H]5CC=C6C[C@@H](O[C@@H]7O[C@H](CO)[C@H](O[C@@H]8O[C@@H](C)[C@H](O)[C@@H](O)[C@H]8O)[C@H](O)[C@@H]7O[C@@H]7O[C@@H](C)[C@@H](O)[C@@H](O)[C@H]7O)CC[C@]6(C)[C@H]5CC[C@]34C)N2C1` [α-chaconine], the IC50 in assay [1] is listed as 294 ± 34 ppb; in [2] it was 204 ± 19 ppb; in assay [3], 54 ± 13 ppb; in [4], “nc (no competition at 10,000 ppb)”; in assay [5], 20.2 ppb; in assay [6] it was “nc (no competition at 10,000 ppb)”. The IC50 in [7] was found to be 165 ± 58 ppb; in assay [8] it was 323 ± 125 ppb; in assay [9] it was 25 ± 2.1 ppb; in assay [10] it was 2.8 ± 0.2 ppb; in [11], 82 ± 5.2 ppb. Further, the “relative affinity of Sol-129” value in assay [10] is listed as “high affinity”.

In the case of `C[C@H]1CC[C@@H]2[C@@H](C)[C@H]3[C@H](C[C@H]4[C@@H]5CC=C6C[C@@H](O[C@@H]7O[C@H](CO)[C@H](O)[C@H](O[C@@H]8O[C@H](CO)[C@@H](O)[C@H](O)[C@H]8O)[C@H]7O[C@@H]7O[C@@H](C)[C@H](O)[C@@H](O)[C@H]7O)CC[C@]6(C)[C@H]5CC[C@]34C)N2C1` [α-solanine], the IC50 was 253 ± 64 ppb in assay [1]; 118 ± 18 ppb in [2]; 49 ± 8 ppb in [3]; “nc (no competition at 10,000 ppb)” in assay [4]; 27.8 ppb in assay [5]; “nc (no competition at 10,000 ppb)” in assay [6]. In addition, the IC50 is 215 ± 32 ppb in [7]; 436 ± 135 ppb in assay [8]; 35 ± 8 ppb in assay [9]; 2.6 ± 0.25 ppb in assay [10]; 104 ± 18 ppb in [11]. The “relative affinity of Sol-129” value in [10] was “high affinity”.

Turning to `C[C@H]1CC[C@]2(NC1)O[C@H]1C[C@H]3[C@@H]4CC[C@H]5C[C@@H](O[C@@H]6O[C@H](CO)[C@H](O[C@@H]7O[C@H](CO)[C@@H](O)[C@H](O[C@@H]8OC[C@@H](O)[C@H](O)[C@H]8O)[C@H]7O[C@@H]7O[C@H](CO)[C@@H](O)[C@H](O)[C@H]7O)[C@H](O)[C@H]6O)CC[C@]5(C)[C@H]4CC[C@]3(C)[C@H]1[C@@H]2C` [α-tomatine], the IC50 result in assay [1], in [2], in assay [3], in assay [4], in assay [5] and in [6] was “nc (no competition at 10,000 ppb)” throughout. Besides, the IC50 result in assay [7] is reported as “nc (no competition at 10,000 ppb)”; in assay [8] it was “nc (no competition at 10,000 ppb)”; in [9], “nc (no competition at 10,000 ppb)”; in [10], 5.4 ± 3.5 ppb; in assay [11] it was “nc (no competition at 10,000 ppb)”. Besides, in assay [10], the “binding by Sol-129” value is “specifically bound; also recorded: Sol-129 was the only antibody capable of binding”. Further, in assay [10], the “relative affinity of Sol-129” value was “approximately the same affinity as the potato glycoalkaloids”.
